Source: patent US20240216249A1, “COLLAGEN ACTIVATOR, AND PREPARATION METHOD AND APPLICATION THEREOF” (Hangzhou NUPTEC Rising Bioproducts Incorporation, Ltd., priority 2022, published 2024)

Experiments:
[1] = test system: blood vessels of embryonated eggs; assay: safety test on blood vessels of embryonated eggs; details: positive comparative group, 0.05 M SDS, 5 eggs
collagen I = assay: cell experiments, expression of collagen I; assay type: cell-based
collagen III = assay: cell experiments, expression of collagen III; assay type: cell-based
collagen XVII = assay: cell experiments, expression of collagen XVII; assay type: cell-based

Row | SMILES | irritation judgement [1] | bleeding of blood vessels of embryonated eggs ([1]; 30 min) | content having a promoting effect on the expression of collagen I (collagen I) | optimal content (highest expression) for collagen I (collagen I) [%] | content having a promoting effect on the expression of collagen III (collagen III) | optimal content (highest expression) for collagen III (collagen III) [%] | content having a promoting effect on the expression of collagen XVII (collagen XVII) | optimal content (highest expression) for collagen XVII (collagen XVII) [%]
1 | CCCCCCCCCCCCOS(=O)(=O)[O-].[Na+] [SDS, sodium dodecyl sulfate] | non-irritants | appear the bleeding phenomenon |  |  |  |  |  | 
2 | CC1(C)[C@@H](O[C@H]2O[C@H](C(=O)[O-])[C@@H](O)[C@H](O)[C@H]2O[C@@H]2O[C@H](C(=O)[O-])[C@@H](O)[C@H](O)[C@H]2O)CC[C@]2(C)[C@H]3C(=O)C=C4[C@@H]5C[C@@](C)(C(=O)O)CC[C@]5(C)CC[C@@]4(C)[C@]3(C)CC[C@@H]12.[K+].[K+] [dipotassium glycyrrhizinate] |  |  | 0.001%-0.1 | 0.01 | 0.001%-0.25 | 0.1 | 0.001%-0.01 | 0.01
